For series [1] the following is noted: substance on its own versus ANP employed as accelerant; cited from earlier work.
A short description of series [2]: T2 relaxation times of destructuring and structuring agents in water. The series is classed as physicochemical. Particulars: solute in water, concentration 0.5 mol/l.

SMILES strings stand for the structures.

Regarding `O=[N+]([O-])O[C@H]1CO[C@H]2[C@@H]1OC[C@H]2O[N+](=O)[O-]` [ISDN, isosorbide dinitrate], in series [1], the “permeation through the skin relative to ANP” value is given as 10 factor.

For `OC[C@H]1O[C@@](CO)(O[C@H]2O[C@H](CO)[C@@H](O)[C@H](O)[C@H]2O)[C@@H](O)[C@@H]1O` [Sucrose], in series [2], the T2 relaxation time is listed as 18.7 ms.

In series [2], `NC(N)=O` [Urea] yielded a T2 relaxation time of 145 ms.

The record behind these values is patent publication US20010018073A1, “Transdermal compositions with enhanced skin penetration properties” (JENAPHARM GMBH & CO., KG, priority 1997, published 2001).
